Source: US20150031760A1, “PHARMACEUTICAL COMPOSITION FOR PREVENTING OR TREATING NERVOUS SYSTEM DISORDERS COMPRISING SULFURETIN OR PHARMACEUTICALLY ACCEPTABLE SALT THEREOF” (Research and Business Foundation SUNGKYUNKWAN UNIVERSITY, priority 2010, published 2015)
Where two headings read alike, the source gives them in different places.

Key:
SH-SY5Y and PC12 cells = test: MTT (cell viability) test, SNP-induced cell death; type: cell-based
SH-SY5Y cells [1] = test: Inhibition of intracellular [Ca2+] influx (Fura-2-AM fluorescence); type: cell-based, human; details: hydrogen peroxide-induced, 30 minutes pretreatment
Method: (§1) The incubator was maintained at a temperature of 37° C., and a mixed gas of 95% air and 5% CO2 was continuously supplied thereto to provide suitable conditions for cell culture. The cells were cultured in a 6-well plate or a 96-well plate at each of densities of 1×10^6 and 2×10^4 cells/well 24 hours before the experiment. […] Sulfuretin was used in ethanol and used at a final concentration of 0.1% or less.
In order to measure inhibitory effects on intracellular [Ca^2+] influx caused by oxidative stress, cells were labeled with Fura-2-AM fluorescence, and quantitative analysis was carried out using a fluorescence meter. Specifically, 10 μl of 5 μM Fura-2-AM was added to each well of the 6-well plate (in which the cells have been cultured) and then allowed to react for 30 minutes. Herein, Fura-2-AM in the incubator was covered with a silver foil such that it would not be exposed to light. After completion of the incubation, the plate was pretreated with sulfuretin for 30 minutes, and then reacted with hydrogen peroxide for 30 minutes to induce the intracellular influx of [Ca^2+]. Then, the cells that reacted with the Fura-2-AM fluorescent substance were washed twice with cold HEPES and detached with HEPES. Then, the cells were centrifuged at 400 g for 3 minutes. The supernatant was removed carefully, stirred weakly with 0.5 ml of HEPES buffer, and then 150 μl was dispensed into each well of a fresh 96-well plate. The fluorescence of the sample dispensed into the fresh 96-well plate was measured at an excitation wavelength of […] and an emission wavelength of 520 nm using a fluorescence meter (Perkinelmer, USA).
The measured value was substituted into the following equation to calculate intracellular [Ca^2+] nM: […]

SH-SY5Y cells [2] = test: MTT assay, amyloid beta25-35-induced cell death; type: cell-based, human; details: pretreated with sulfuretin at 2.5, 5, 10 and 20 μM for 30 minutes, then 20 μM amyloid beta25-35 for 24 hours (p<0.05 and p<0.001)
Method: For the experiments shown in FIGS. 11 to 13, SH-SY5Y and stable swedish APP mutant SH-SY5Y cells were grown in DMEM supplemented with 10% heat-inactivated FBS and 0.1% penicillin/streptomycin at 37° C. in a humidified atmosphere of 5% CO2 and 95% air. Cells were fed every three days and sub-cultured once they reached 80-90% confluency in […] cell culture dishes. Amyloid beta25-35 was prepared as a 20 mM stock immediately before use and diluted in PBS to the indicated final concentration. Prior to use, amyloid beta25-35 was dissolved in sterilized distilled water and was aggregated at 37° C. for five days. The test compounds were dissolved in DMSO and the stock solutions were added directly to the culture media to a final concentration of 0.1% (v/v) DMSO.
First of all, MTT assay was performed to determine the neuroprotective effects of sulfuretin on amyloid beta25-35-induced cell death. […] The dark-blue formazan crystals formed in intact cells were dissolved in DMSO, and the absorbance at 540 nm was measured with a microplate reader (SpectraMax 250, Molecular Device, Sunnyvale, Calif., USA). The results were expressed as the percentage of MIT reduction relative to the absorbance of control cells.

SH-SY5Y cells [3] = test: MTT (cell viability) test, induced cell death in SH-SY5Y cells; details: Homo sapiens, SH-SY5Y; for viability at 0.1 µg/mL: sulfuretin 0.1 μg/ml; for viability at 0.5 µg/mL: sulfuretin 0.5 μg/ml; for viability at 1 µg/mL: sulfuretin 1 μg/ml; for viability at 5 µg/mL: sulfuretin 5 μg/ml
Method: as §1
To measure cell viability, an MTT reduction assay was used. An MTT solution was added to each well of the 96-well plate (in which the cells have been cultured) to a final concentration of 0.5 mg/ml. The plate was incubated in an incubator for 2 hours, and the medium and the MIT solution were removed, after which DMSO was added thereto and stirred. When DMSO was completely dissolved, the UV absorbance at 540 nm was measured using a microplate reader (Molecular device, USA).
The measured absorbance was substituted into the following equation to calculate cell viability:
Cell viability (%)=[(O.D. of control−O.D. of test group)/O.D. of control]×100

Tau = test: Western blot, amyloid beta25-35-induced hyperphosphorylation of Tau; type: cell-based, human; details: SH-SY5Y cells; pretreatment with sulfuretin at 20 μM; 20 μM amyloid beta25-35 (p<0.01)
caspase-3 = test: Western blot, caspase-3 expression; type: cell-based, human; details: SH-SY5Y cells
Method: as §1
(§2) In order to identify the effect of sulfuretin on the expression of proteins related to dementia, Alzheimer's disease, Parkinson's disease and strokes, a Western blot test was carried out.
(§3) After 24 hours, the supernatant of each well was collected and centrifuged at 400 g for 3 minutes, and the cells were washed with cold PBS and lysed with 100 μl of T-PER lysis buffer (Thermo, USA) for 30 minutes. The lysates were centrifuged at 10000 g at 4° C. for 15 minutes, and the supernatants were stored at […] until use as test samples. Proteins were quantitatively analyzed using a BCA assay kit (Thermo, USA) and separated within 8.5-12% SDS gel and then transferred to PVDF membranes. To examine the expression of the proteins, the development of fluorescence was analyzed by enhanced chemiluminescence (ECL). Specifically, the membrane was blocked with 5% skimmed non-fat milk for 1 hour and labeled with the primary antibodies, PARP, caspase-3, phospho-p38, phospho-JNK and β-actin at 4° C. overnight. Then, the membrane was washed three times with Tris-tween buffered saline (TTBS), and then labeled with horseradish peroxidase (HRP)-conjugated anti-rabbit and anti-mouse secondary antibodies at room temperature for 1 hour. Then, the membrane was washed five times with TTBS for 10 minutes. The washed film was developed by ECL using x-ray films, and concentrations were quantitatively analyzed using quantitative analysis program (Fujifilm, Japan).

phospho-p38 = test: Western blot, phospho-p38 expression; type: cell-based, human; details: SH-SY5Y cells
Method: as §1, §2, §3

[4] = read-out: cell viability, 6-hydroxydopamine-induced cell death
[5] = read-out: cell viability, beta-amyloid-induced cell death
[6] = read-out: cell viability, hydrogen peroxide-induced cell death
[7] = hydrogen peroxide + sulfuretin 0.1 μg/ml
[8] = hydrogen peroxide + sulfuretin 0.5 μg/ml
[9] = hydrogen peroxide + sulfuretin 1 μg/ml

## O=C1/C(=C/c2ccc(O)c(O)c2)Oc2cc(O)ccc21 [sulfuretin]
SH-SY5Y and PC12 cells; sulfuretin 0.1 μg/ml
  viability at 0.1 µg/mL: ≥ 44%
SH-SY5Y and PC12 cells; sulfuretin 0.5 μg/ml
  viability at 0.5 µg/mL: ≥ 56%
SH-SY5Y and PC12 cells; sulfuretin 1 μg/ml
  viability at 1 µg/mL: ≥ 64%
SH-SY5Y and PC12 cells; sulfuretin 5 μg/ml
  viability at 5 µg/mL: ≥ 163%
SH-SY5Y cells [1]; sulfuretin 0.1 μg/ml
  intracellular [Ca2+] influx: ≤ 566 nM
SH-SY5Y cells [1]; sulfuretin 0.5 μg/ml
  intracellular [Ca2+] influx: ≤ 395 nM
SH-SY5Y cells [1]; sulfuretin 1 μg/ml
  intracellular [Ca2+] influx: ≤ 371 nM
SH-SY5Y cells [1]; sulfuretin 5 μg/ml
  intracellular [Ca2+] influx: ≤ 243 nM
SH-SY5Y cells [2]
  cell viability (MTT reduction): significantly increased
SH-SY5Y cells [3]; [4]
  viability at 0.1 µg/mL: ≥ 87%
  viability at 0.5 µg/mL: ≥ 97%
  viability at 1 µg/mL: ≥ 112%
  viability at 5 µg/mL: ≥ 140%
SH-SY5Y cells [3]; [5]
  viability at 0.1 µg/mL: ≥ 58%
  viability at 0.5 µg/mL: ≥ 64%
  viability at 1 µg/mL: ≥ 80%
  viability at 5 µg/mL: ≥ 97%
SH-SY5Y cells [3]; [6]
  viability at 0.1 µg/mL: ≥ 74%
  viability at 0.5 µg/mL: ≥ 97%
  viability at 1 µg/mL: ≥ 119%
  viability at 5 µg/mL: ≥ 103%
Tau
  amyloid beta25-35-mediated increases in phosphorylation of Tau proteins: significantly inhibited
caspase-3; [7]
  caspase-3 expression: ≥ 24%
caspase-3; [8]
  caspase-3 expression: ≥ 51%
caspase-3; [9]
  caspase-3 expression: ≥ 127%
phospho-p38; [7]
  phospho-p38 expression: ≤ 157%
phospho-p38; [8]
  phospho-p38 expression: ≤ 133%
phospho-p38; [9]
  phospho-p38 expression: ≤ 53%
